Source: article PMC4253628, “Antiviral effects against EV71 of pimprinine and its derivatives isolated from Streptomyces sp” (Virology Journal, 2014)
Where two headings read alike, the source gives them in different places.

What was measured:
[1] = Cytotoxicity, MTT method, Hep-2 cells; type: cell-based; settings: human
Description: (§1) The 50% cell cytotoxic concentrations (CC50s) of compounds were calculated using SPSS software. SI were calculated from the ratio of CC50: EC50.

[2] = tested on: HSV-1; experiment: Virus yield reduction assay, HSV-1; type: cell-based, herpes simplex virus 1; settings: Hep-2 cells, — = less than 90% inhibition
[3] = tested on: HSV-1; experiment: Plaque reduction assay, HSV-1 in Hep-2 cells; settings: for SI HSV-1, ratio CC50/EC50 / inhibition of HSV-1-induced plaque formation: Hep-2 cells; for EC50: Human alphaherpesvirus 1, HEp-2, read-out: EC50 HSV-1; for inhibition of HSV-1-induced plaque formation: inhibition achievable
Description: Confluent monolayers of Hep-2 cells, seeded in a 24-well plate, were infected with HSV-1 at a density of 60–80 plaque-forming units (PFU) per well and treated with media (pre-warmed DMEM containing 2% FBS, 0.8% low-melting agarose) mixed with or without the serially diluted tested compounds for the periods indicated following different procedures. The cells were incubated at 37°C until plaques appeared, followed by fixing with 10% formaldehyde and staining with 0.5% crystal violet. The plaques were counted by visual examination. The ratio of the number of plaques in the treated group to that in the untreated control was calculated.
A plaque reduction assay was performed to measure the inhibitory effects of the test compounds against HSV-1 infection.

[4] = Cytotoxicity, MTT method, MDCK cells; type: cell-based, canine; settings: dog, uninfected MDCK cells, host cells of H1N1: MDCK
Description: as §1

[5] = tested on: H1N1; experiment: Inhibition of H1N1-induced CPE in MDCK cells; type: cell-based, influenza virus A/human/Hubei/86/2009 (H1N1); settings: for EC50: Influenza A virus, read-out: EC50 H1N1
[6] = tested on: H1N1; experiment: Virus yield reduction assay, H1N1; type: cell-based, influenza virus A/human/Hubei/86/2009 (H1N1); settings: MDCK cells, — = less than 90% inhibition
Description: Virus yield reduction assays were also carried out to evaluate further the protective effects of the tested compounds.
The virus suspension, serially diluted 10-fold with DMEM containing 2% FBS, was inoculated to cells in a 96-well plate. After 1 h incubation at 37°C in 5% CO2, unbinding virus was washed out and DMEM maintenance medium supplemented with 2% FBS was added to the cells. After 2 days, the infected cells were monitored for cytopathic effects (CPEs). The virus titer was calculated by the Reed–Muench method.

[7] = Cytotoxicity, MTT method, uninfected RD cells; type: cell-based; settings: human
Description: as §1

[8] = tested on: EV71; experiment: Progeny virus yield reduction, EV71 in RD cells; type: cell-based, Enterovirus 71; settings: for reduction in progeny virus titers relative to virus control: 80 μM; for EC90: Enterovirus A, EV71, RD cells, progeny viral yield, read-out: EC90, compound concentration required to achieve 90% virus yield reduction
[9] = Cytotoxicity, MTT method, HeLa cells; type: cell-based; settings: human
Description: as §1

[10] = tested on: CVB3; experiment: Virus yield reduction assay, CVB3; type: cell-based, Coxsackievirus B3; settings: Enterovirus B, CVB3; Hep-2 cells; — = less than 90% inhibition; read-out: EC90 CVB3, concentration required to inhibit 90% virus yield
[11] = tested on: ADV-7; experiment: Virus yield reduction assay, ADV-7; type: cell-based, adenovirus 7; settings: Human mastadenovirus B; HeLa cells; read-out: EC90 ADV-7, concentration required to inhibit 90% virus yield
[12] = Cytotoxicity, ATPLite luminescence-based assay, RD cells; type: cell-based; settings: human
Excerpt: (§2) The ATPLite assay may be more sensitive to cytotoxicity than the MTT method. For RD and Hep-2 cells, similar results were obtained, and for HeLa and MDCK cells, the values of CC50 from the ATPLite assay were smaller than those from MTT assays (Tables 1, 2 and 3).

[13] = Cytotoxicity, ATPLite luminescence-based assay, Hep-2 cells; type: cell-based; settings: human
Excerpt: as §2

[14] = Cytotoxicity, ATPLite luminescence-based assay, HeLa cells; type: cell-based; settings: human
Excerpt: as §2

[15] = Cytotoxicity, ATPLite luminescence-based assay, MDCK cells; type: cell-based, canine; settings: dog
Excerpt: as §2

[16] = tested on: EV71; experiment: Dependence of anti-EV71 activity on virus inoculum (cell viability, MTT) in RD cells; type: cell-based, Enterovirus 71; settings: virus concentration above 10^4 TCID50
[17] = tested on: EV71; experiment: Virucidal activity against EV71; type: cell-based, Enterovirus 71; settings: 80 μM pimprinethine, 40 μM WS-30581 A or 40 μM WS-30581 B; 24 h at 4°C; 10^3 TCID50
[18] = tested on: EV71; experiment: Effective stage analysis, EV71 in RD cells; type: cell-based, Enterovirus 71; settings: 48 h; for virus titer reduction vs untreated cells: 80 μM, added post infection, EV71 100 TCID50; for viability at 80 µM: Enterovirus A, RD, added post infection (therapeutic), EV71 100 TCID50, read-out: viability rates of the infected cells
[19] = tested on: EV71; experiment: Adsorption analysis, EV71 on RD cells; type: cell-based, Enterovirus 71; settings: 160 μM pimprinethine, 80 μM WS-30581 A, 80 μM WS-30581 B; EV71 10^4 TCID50; 2 h adsorption
[20] = tested on: EV71; experiment: Release analysis, EV71 from RD cells; type: cell-based, Enterovirus 71; settings: 80 μM pimprinethine, 40 μM WS-30581 A or B; 12 h p.i.
[21] = tested on: EV71; settings: EV71, RD cells
Description: (§3) Cell viability was assessed by an MTT assay, which functions based on the reduction of a MTT into formazan dye by active mitochondria. The cells were treated with 100 μL of MTT (1 mg/mL, Sigma) and incubated at 37°C for 4 h. The reaction was blocked by DMSO and measured in a microplate reader (Bio-Tek Instruments) at 492 nm. The untreated control was arbitrarily set as 100%.
(§4) Confluent cell monolayers in 96-well dishes were infected with 100 TCID50 of corresponding virus dilution mixed with serial dilutions of tested compounds for 1 h at 37°C. Inocula were aspirated and the cells were then incubated with various concentrations of DMEM/tested compounds at 37°C, 5% CO2 for 48 h. CPE were observed microscopically and the viability of the cells was determined using MTT assays. […] The concentrations required for the tested compounds to achieve 50% protection of cells from virus-induced CPE were determined.

[22] = tested on: EV71; experiment: microbe, parasite or virus in culture; settings: Enterovirus A, EV71, RD, 48 h, read-out: EC50, compound concentration required to achieve 50% protection from virus-induced cytopathogenicity
Description: as §3, §4

[23] = tested on: CVB3; experiment: Inhibition of CVB3-induced CPE in Hep-2 cells; settings: for EC50: Enterovirus B, CVB3, HEp-2, 48 h, read-out: EC50 CVB3; for SI CVB3, ratio CC50/EC50: Hep-2 cells
Description: as §3, §4

[24] = tested on: ADV-7; experiment: Inhibition of ADV-7-induced CPE in HeLa cells; settings: for SI ADV-7, ratio CC50/EC50: HeLa cells; for EC50: Human mastadenovirus B, HeLa, 48 h, read-out: EC50 ADV-7
Description: as §3, §4

[25] = tested on: EV71; experiment: Antiviral activity of MAO inhibitors against EV71; type: cell-based, Enterovirus 71
[26] = tested on: CVB3; experiment: Antiviral activity of MAO inhibitors against CVB3; type: cell-based, Coxsackievirus B3
[27] = parameters: method as in PMID 6501088; settings: ddY mice, intraperitoneal injection; cited from earlier work
[28] = H1N1, MDCK cells, 100 TCID50, 48 h, CPE, — = less than 50% inhibition
[29] = RD cells, MTT, 48 h, mean ± SD of three experiments, read-out: CC50, compound concentration required to reduce cell viability by 50%
[30] = 100 TCID50 EV71, RD cells, 10 h
[31] = uninfected Hep-2 cells, host cells of CVB3: Hep-2, MTT, 48 h, read-out: CC50 (CVB3)
[32] = uninfected HeLa cells, host cells of ADV-7: HeLa, MTT, 48 h, read-out: CC50 (ADV-7)

| Compound | SI HSV-1, ratio CC50/EC50 [3] | EC50 [3] [µM] | CC50 at 48 h [4] [µM] | SI H1N1, ratio CC50/EC50 ([5]; MDCK cells) | CC50 at 48 h [7, 29] [µM] | reduction in progeny virus titers relative to virus control [8, 30] [log] | EC90 [8] [µM] | CC50 at 48 h [1, 31] [µM] | CC50 at 48 h [9, 32] [µM] | inhibition of H1N1 infection ([5]; MDCK cells) | EC90 [10] [µM] | EC90 HSV-1, concentration required to inhibit 90% virus yield [2] | EC90 [11] [µM] | virus titer during virus attachment (adsorption) [19] | SI (selectivity index), ratio CC50/EC50 [21] | EC50 [22] [µM] | EC50 [23] [µM] | SI CVB3, ratio CC50/EC50 [23] | SI ADV-7, ratio CC50/EC50 [24] | EC50 [24] [µM] | further results |
| --- | --- | --- | --- | --- | --- | --- | --- | --- | --- | --- | --- | --- | --- | --- | --- | --- | --- | --- | --- | --- | --- |
| Nc1nc2c(ncn2COCCO)c(=O)[nH]1 [Acyclovir, reference compound] | >181 | 11 ± 1 |  |  |  |  |  |  |  |  |  |  |  |  |  |  |  |  |  |  | CC50 at 48 h [1]: > 2000 µM; EC90 ([2]; Human alphaherpesvirus 1, read-out: EC90 HSV-1, concentration required to inhibit 90% virus yield): 24 ± 5 µM |
| NC12CC3CC(CC(C3)C1)C2 [Amantadine, reference compound] |  |  | > 2000 | >27 |  |  |  |  |  |  |  |  |  |  |  |  |  |  |  |  | EC50 [5, 28]: 73 ± 8 µM; EC90 ([6]; Influenza A virus, H1N1, read-out: EC90 H1N1, concentration required to inhibit 90% virus yield): 90 ± 12 µM |
| CCc1ncc(-c2c[nH]c3ccccc23)o1 [Pimprinethine] | 6 | 45 ± 3 | 577 ± 73 |  | 835 ± 20 | 3.0 | 42 ± 3 | 256 ± 49 | 750 ± 30 | negligible measurable inhibition | 58 ± 9 | — (—, less than 50% or 90% inhibition) | 63 ± 5 | no significant decrease | 24 | 35 ± 4 | 22 ± 4 | 12 | 23 | 33 ± 6 | EC50 H1N1 ([5]; MDCK cells, 100 TCID50, 48 h, CPE, — = less than 50% inhibition): — (—, less than 50% or 90% inhibition); EC90 H1N1, concentration required to inhibit 90% virus yield [6]: — (—, less than 50% or 90% inhibition); CC50 [12]: 656 ± 82 µM; CC50 [13]: 233 ± 36 µM; CC50 [14]: 550 ± 103 µM; CC50 [15]: 406 ± 48 µM; anti-EV71 inhibition at excessive virus inoculum [16]: Inhibition was eliminated; virus titers of EV71 mixture with vs without compound (virucidal activity) [17]: No significant difference; virus titer reduction vs untreated cells [18]: approximately 5.0 log; viability at 80 µM [18]: ~100%; release of EV71 from RD cells [20]: unaffected; inhibition of HSV-1-induced plaque formation [3]: approximately 80% |
| NC(=O)c1ncn([C@@H]2O[C@H](CO)[C@@H](O)[C@H]2O)n1 [Ribavirin, reference compound] |  |  |  |  |  |  | 136 ± 49 |  |  |  | 103 ± 17 |  | 132 ± 22 | no significant decrease | 12 | 102 ± 68 | 90 ± 10 | 15 | 13 | 116 ± 19 | CC50 at 48 h [7]: 1230 ± 355 µM; reduction in progeny virus titers ([8]; 160 μM, 100 TCID50 EV71, RD cells, 10 h): ~2.0 log; CC50 at 48 h [1]: 1310 ± 385 µM; CC50 at 48 h [9]: 1520 ± 243 µM |
| N[C@@H]1C[C@H]1c1ccccc1 [TCP] |  |  |  |  |  |  |  |  |  |  |  |  |  |  |  |  |  |  |  |  | antiviral activity against EV71 [25]: inactive; antiviral activity against CVB3 [26]: inactive |
| CCCc1ncc(-c2c[nH]c3ccccc23)o1 [WS-30581 A] | 4 | 18 ± 2 | 212 ± 18 | 6 | 363 ± 13 | 3.0 | 26 ± 6 | 72 ± 8 | 217 ± 4 | less than 70% | 39 ± 4 | — (—, less than 50% or 90% inhibition) | 43 ± 3 | no significant decrease | 23 | 16 ± 1 | 14 ± 4 | 5 | 13 | 17 ± 18 | EC50 ([5]; H1N1, MDCK, 48 h): 38 ± 7 µM; EC90 H1N1, concentration required to inhibit 90% virus yield [6]: — (—, less than 50% or 90% inhibition); CC50 [12]: 313 ± 49 µM; anti-EV71 inhibition at excessive virus inoculum [16]: Inhibition was eliminated; virus titers of EV71 mixture with vs without compound (virucidal activity) [17]: No significant difference; virus titer reduction vs untreated cells [18]: approximately 5.0 log; viability at 80 µM [18]: ~100%; release of EV71 from RD cells [20]: unaffected; acute toxicity [27]: above 250 mg/kg; inhibition of HSV-1-induced plaque formation [3]: approximately 80% |
| CCCCc1ncc(-c2c[nH]c3ccccc23)o1 [WS-30581 B] | 6 | 14 ± 4 | 215 ± 28 | 9 | 229 ± 10 | 3.0 | 18 ± 2 | 83 ± 6 | 354 ± 14 | less than 70% | 42 ± 6 | — (—, less than 50% or 90% inhibition) | 48 ± 6 | no significant decrease | 21 | 11 ± 3 | 12 ± 2 | 7 | 24 | 15 ± 2 | EC50 [5, 28]: 24 ± 5 µM; EC90 H1N1, concentration required to inhibit 90% virus yield [6]: — (—, less than 50% or 90% inhibition); CC50 [12]: 267 ± 31 µM; anti-EV71 inhibition at excessive virus inoculum [16]: Inhibition was eliminated; virus titers of EV71 mixture with vs without compound (virucidal activity) [17]: No significant difference; virus titer reduction vs untreated cells [18]: approximately 5.0 log; viability at 80 µM [18]: ~100%; release of EV71 from RD cells [20]: unaffected; inhibition of HSV-1-induced plaque formation [3]: approximately 80% |
| C#CCN(C)Cc1ccccc1 [pargyline] |  |  |  |  |  |  |  |  |  |  |  |  |  |  |  |  |  |  |  |  | antiviral activity against EV71 [25]: inactive; antiviral activity against CVB3 [26]: inactive |
